Measured values from ChEMBL document CHEMBL1129025, “Molecular basis of peripheral vs central benzodiazepine receptor selectivity in a new class of peripheral benzodiazepine receptor ligands related to alpidem” (J Med Chem, 1996).

What was measured:
Translocator protein [1] = target: T1, Translocator protein (Rattus norvegicus, UniProt P16257); assay: Binding affinity against peripheral benzodiazepine receptor( PBR).
Translocator protein [2] = target: T1, Translocator protein; assay: Displacement of [3H]PK11195 from rat kidney peripheral benzodiazepine receptor (type 2)
Translocator protein [3] = target: T1, Translocator protein; assay: Displacement of [3H]PK11195 from rat kidney peripheral benzodiazepine receptor (type 1)
Translocator protein [4] = target: T1, Translocator protein; assay: Displacement of [3H]Ro-5-4864 from rat cerebral cortex peripheral benzodiazepine receptor; format: tissue-based
Translocator protein [5] = target: T1, Translocator protein; assay: Displacement of [3H]Ro-5-4864 from rat kidney peripheral benzodiazepine receptor
Translocator protein [6] = target: T1, Translocator protein; assay: Displacement of [3H]PK11195 from rat cerebral cortex peripheral benzodiazepine receptor (type 1); format: tissue-based
[7] = target: GABA-A receptor; anion channel; assay: Binding affinity against central benzodiazepine receptor(CBR).; format: protein-complex assay
Translocator protein [8] = target: T1, Translocator protein; assay: Displacement of [3H]PK11195 from rat cerebral cortex peripheral benzodiazepine receptor (type 2); format: tissue-based
Translocator protein [9] = target: T1, Translocator protein; assay: Displacement of [3H]-PK11195 from rat kidney peripheral benzodiazepine receptor (type 2)

T1 sequence (P16257 whole entry, looked up): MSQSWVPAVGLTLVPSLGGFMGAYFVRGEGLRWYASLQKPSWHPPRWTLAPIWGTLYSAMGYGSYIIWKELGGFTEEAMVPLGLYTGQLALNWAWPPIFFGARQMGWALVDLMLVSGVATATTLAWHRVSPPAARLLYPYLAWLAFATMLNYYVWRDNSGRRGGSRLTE

Compound	IC50 (Translocator protein [1]) [nM]	IC50 [7] [nM]	further results
CN(Cc1ccccc1)C(=O)/C=C1\c2nc3ccccc3cc2C(=O)N1c1ccc(Cl)cc1	> 1000	–	–
CCCN(CCC)C(=O)/C=C1\c2nc3ccccc3cc2C(=O)N1c1ccc(Cl)cc1	40	> 1000	IC50 (Translocator protein [2]): 160 nM; IC50 (Translocator protein [3]): 2.7 nM; IC50 (Translocator protein [4]): 120 nM; IC50 (Translocator protein [5]): 150 nM; IC50 (Translocator protein [6]): 4.9 nM; IC50 (Translocator protein [8]): 210 nM
CCCCCCN(CCCCCC)C(=O)CC1c2ncccc2C(=O)N1c1ccc(Cl)cc1 (centres undefined)	1600	> 1000	–
CN(C(=O)/C=C1\c2nc3ccccc3cc2C(=O)N1c1ccc(Cl)cc1)c1ccc(Cl)cc1	32	–	IC50 (Translocator protein [3]): 1.1 nM; IC50 (Translocator protein [4]): 4.5 nM; IC50 (Translocator protein [5]): 2 nM; IC50 (Translocator protein [6]): 2.4 nM; IC50 (Translocator protein [9]): 140 nM; IC50 (Translocator protein [8]): 610 nM
COc1ccc(N(C)C(=O)/C=C2\c3nc4ccccc4cc3C(=O)N2c2ccc(Cl)cc2)cc1	1.9	–	IC50 (Translocator protein [2]): 14 nM; IC50 (Translocator protein [3]): 0.7 nM; IC50 (Translocator protein [4]): 2.3 nM; IC50 (Translocator protein [5]): 1.7 nM; IC50 (Translocator protein [6]): 9.8 nM; IC50 (Translocator protein [8]): 320 nM
CCCN(CCC)C(=O)/C=C1\c2ncccc2C(=O)N1c1ccc(Cl)cc1	290	> 1000	–
CCCCCCN(CCCCCC)C(=O)/C=C1\c2ncccc2C(=O)N1c1ccc(Cl)cc1	33000	> 1000	–
CCCN(CCC)C(=O)C=C1c2nc3ccccc3cc2C(=O)N1c1ccc(Cl)cc1	> 1000	–	–
CCN(Cc1ccccc1)C(=O)/C=C1\c2nc3ccccc3cc2C(=O)N1c1ccc(Cl)cc1	> 1000	–	–
CCCCCCN(CCCCCC)C(=O)/C=C1\c2nc3ccccc3cc2C(=O)N1c1ccc(Cl)cc1	150	> 1000	–
CCCCCCN(CCCCCC)C(=O)CC1c2nc3ccccc3cc2C(=O)N1c1ccc(Cl)cc1 (centres undefined)	> 1000	> 1000	–
CCCN(CCC)C(=O)CC1c2nc3ccccc3cc2C(=O)N1c1ccc(Cl)cc1 (centres undefined)	> 1000	> 1000	–
O=C1c2cccnc2CN1c1ccc(Cl)cc1	> 1000	> 1000	–
CCCN(CCC)C(=O)CC1c2ncccc2C(=O)N1c1ccc(Cl)cc1 (centres undefined)	> 1000	860	–
CCCN(CCC)C(=O)Cc1c(-c2ccc(Cl)cc2)nc2ccc(Cl)cn12 [ALPIDEM]	7	28	–
CN1CCN(C(=O)OC2c3nccnc3C(=O)N2c2ccc(Cl)cn2)CC1 (centres undefined) [ZOPICLONE]	–	29	–
